Values of other authors in patent publication US20160120807A1, “CELL-SURFACE DECORATION WITH ACTIVE AGENTS” (University of Louisville Research Foundation, Inc., priority 2005, published 2016).

Assays:
[1] = biological target: T1, NPY Y1 receptor (Homo sapiens, UniProt P25929)
T1 construct: host or cells: smooth muscle cells; vessel after angioplasty
T1 sequence (P25929 1-384): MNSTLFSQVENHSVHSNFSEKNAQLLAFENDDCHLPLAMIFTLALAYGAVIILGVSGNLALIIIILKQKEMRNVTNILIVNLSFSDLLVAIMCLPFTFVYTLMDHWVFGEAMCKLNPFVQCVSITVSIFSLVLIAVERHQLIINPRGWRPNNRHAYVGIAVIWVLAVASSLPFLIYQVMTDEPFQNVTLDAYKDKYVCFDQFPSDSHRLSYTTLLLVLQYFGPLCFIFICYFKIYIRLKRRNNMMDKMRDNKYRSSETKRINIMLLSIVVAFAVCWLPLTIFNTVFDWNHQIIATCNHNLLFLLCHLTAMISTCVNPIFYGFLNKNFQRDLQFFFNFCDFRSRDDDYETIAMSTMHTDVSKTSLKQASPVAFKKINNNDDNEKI

[2] = biological target: T1, NPY Y1 receptor; remark: listed apart in the source

## N=C(N)NCCC[C@@H](NC(=O)C(c1ccccc1)c1ccccc1)C(=O)NCc1ccc(O)cc1 [BIBP3226, (R)—N2-(diphenylacetyl)-N-[(4-hydroxy-phenyl)methyl]-D-arginine-amide]
[1]
  mitogen-activated protein kinase (MAPK) activity in smooth muscle cells: reduces mitogen-activated protein kinase (MAPK) activity
[2]
  neointimal hyperplasia after angioplasty: reduces neointimal hyperplasia
